Read-outs that look alike come from different tables or passages of the source.
Tested on: TRIM31 mRNA
Assay: TRIM31 mRNA expression by RT-qPCR in PA/OA-induced L02 cells
Assay type: cell-based, human
Details: for fold induction at 100 µM: Homo sapiens
Description: Palmitic acid/oleic acid (PA/OA) was used to induce the decrease of TRIM31 mRNA expression in human hepatocyte L02 cells. The cells were divided into control group and drug group. The drug group was treated with a concentration of 100 μmol/L compound, and the expression level of TRIM31 mRNA was detected by RT-qPCR. The expression level of TRIM31 mRNA in the drug group divided by that in the control group (Qdrug/Qctrl) was used to evaluate the ability of the compounds to promote TRIM31 expression. […]

[1] = 100 μmol/L compound, PA/OA-induced L02 cells, RT-qPCR
[2] = 100 μmol/L compound, PA/OA-induced L02 cells, RT-qPCR, read-out: Qdrug/Qctrl (TRIM31 mRNA expression level, drug group divided by control group)
[3] = L02, read-out: Qdrug/Qctrl (TRIM31 mRNA expression level, drug group divided by control group)

`Oc1cc(O)c2c(c1)O[C@H](c1cc(O)c(O)c(O)c1)[C@H](O)C2` [(−)-epigallocatechin] was tested, and the “Qdrug/Qctrl (TRIM31 mRNA expression level, drug group divided by control group)” value [1] was 2.71 fold.

Work on `COc1cc2c(c3c1c(=O)c1ccccc1n3C)C=CC(C)(C)O2` [Acronycine] yielded a fold induction at 100 µM [2] of 1.43.

`C[S+](CC[C@H](N)C(=O)[O-])C[C@H]1O[C@@H](n2cnc3c(N)ncnc32)[C@H](O)[C@@H]1O` (some centres unmarked) [Ademetionine, reference compound] gave a fold induction at 100 µM [2] of 2.55.

With `Oc1ccc([C@H]2Oc3cc(O)cc(O)c3C[C@@H]2O)cc1` [Afzelechin] the “Qdrug/Qctrl (TRIM31 mRNA expression level, drug group divided by control group)” value [1] was 3.12 fold.

For `O=c1cc(-c2ccc(O)cc2)oc2cc(O)cc(O)c12` [Apigenin], the fold induction at 100 µM [3] was 3.21.

`O=c1cc(-c2ccc(O)cc2)oc2cc(O[C@@H]3O[C@H](CO)[C@@H](O)[C@H](O)[C@H]3O[C@@H]3OC[C@](O)(CO)[C@H]3O)cc(O)c12` [Apiin] showed a fold induction at 100 µM [2] of 3.22.

With `O=c1cc(-c2ccccc2)oc2cc(O)c(O)c(O)c12` [Baicalein] the fold induction at 100 µM [3] was 3.53.

Molecule `O=C(O)[C@H]1O[C@@H](Oc2cc3oc(-c4ccccc4)cc(=O)c3c(O)c2O)[C@H](O)[C@@H](O)[C@@H]1O` [Baicalin] has a fold induction at 100 µM [2] of 2.98.

Work on `COc1ccc2cc3[n+](cc2c1OC)CCc1cc2c(cc1-3)OCO2` [Berberine, reference compound] yielded a fold induction at 100 µM [3] of 1.32.

For `COC(=O)c1cc(OC)c2c(c1-c1c(CO)cc(OC)c3c1OCO3)OCO2` [Bicyclol, reference compound], the fold induction at 100 µM [2] was 2.45.

Molecule `COC(=O)c1cc(OC)c2c(c1-c1c(C(=O)OC)cc(OC)c3c1OCO3)OCO2` [Bifendate, reference compound] has a fold induction at 100 µM [3] of 1.76.

Molecule `CC[C@@]1(O)C(=O)OCc2c1cc1n(c2=O)Cc2cc3ccccc3nc2-1` [Camptothecin] has a fold induction at 100 µM [2] of 2.13.

`CN1Cc2c(ccc3c2OCO3)[C@@H]2[C@H]1c1cc3c(cc1C[C@@H]2O)OCO3` [Chelidonine] showed a fold induction at 100 µM [3] of 1.53.

Molecule `C[C@H](CCC(=O)O)[C@H]1CC[C@H]2[C@@H]3[C@H](O)C[C@@H]4C[C@H](O)CC[C@]4(C)[C@H]3CC[C@]12C` [Chenodeoxycholic acid, reference compound] has a fold induction at 100 µM [2] of 2.54.

Molecule `O=C(/C=C/c1ccc(O)c(O)c1)O[C@@H]1C[C@](O)(C(=O)O)C[C@@H](O)[C@H]1O` [Chlorogenic acid] has a fold induction at 100 µM [3] of 2.42.

In the case of `O=c1cc(-c2ccccc2)oc2cc(O)cc(O)c12` [Chrysin], the fold induction at 100 µM [3] is reported as 2.89.

With `COc1cc2c(c(OC)c1OC)-c1ccc(OC)c(=O)cc1[C@@H](NC(C)=O)CC2` [Colchicine, reference compound] the fold induction at 100 µM [3] was 1.32.

`COc1cc(/C=C/C(=O)CC(=O)/C=C/c2ccc(O)c(OC)c2)ccc1O` [Curcumin] was tested, and the fold induction at 100 µM [3] was 2.83.

In the case of `Oc1cc(O)c2cc(O)c(-c3ccc(O)c(O)c3)[o+]c2c1` [Cyanidin], the fold induction at 100 µM [3] is reported as 2.97.

In the case of `O=C(/C=C/c1ccc(O)c(O)c1)O[C@@H]1C[C@@](OC(=O)/C=C/c2ccc(O)c(O)c2)(C(=O)O)C[C@@H](O)[C@@H]1O` [Cynarin], the fold induction at 100 µM [2] is reported as 2.56.

In the case of `C=C(CO)C(=O)O[C@H]1CC(=C)[C@@H]2C[C@H](O)C(=C)[C@@H]2[C@H]2OC(=O)C(=C)[C@@H]21` [Cynaropicrin], the fold induction at 100 µM [3] is reported as 3.35.

Work on `O=c1c(-c2ccc(O)cc2)coc2cc(O)ccc12` [Daidzein] yielded a fold induction at 100 µM [3] of 2.66.

`Oc1cc(O)c2cc(O)c(-c3cc(O)c(O)c(O)c3)[o+]c2c1` [Delphinidin] showed a fold induction at 100 µM [2] of 2.49.

For `O=C1c2c(O)cc(O)cc2O[C@H](c2ccc(O)c(O)c2)[C@H]1O` [Dihydroquercetin], the fold induction at 100 µM [3] was 3.32.

Molecule `COc1ccc(-c2cc(=O)c3c(O)cc(O)cc3o2)cc1O` [Diosmetin] has a fold induction at 100 µM [2] of 3.41.

`Oc1cc(O)c2c(c1)O[C@H](c1ccc(O)c(O)c1)[C@H](O)C2` [Epicatechin] showed a fold induction at 100 µM [3] of 2.92.

`COc1cc(/C=C/C(=O)O)ccc1O` [Ferulic acid] showed a fold induction at 100 µM [3] of 2.51.

For `O=c1c(O)c(-c2ccccc2)oc2cc(O)cc(O)c12` [Galangin], the fold induction at 100 µM [2] was 2.81.

In the case of `O=c1c(-c2ccc(O)cc2)coc2cc(O)cc(O)c12` [Genistein], the fold induction at 100 µM [2] is reported as 2.73.

Reference: patent US20240293579A1, “Composition Comprising Trim31 and Rhbdf2 for Treatment of NAFLD/NASH” (CHONGQING MEIPULAN TECHNOLOGY CO., LTD, priority 2021, published 2024)
